Measured values published in US20220023773A1, “COMPOSITIONS COMPRISING 2-[(1R,6R)-6-ISOPROPENYL-3-METHYLCYCLOHEX-2-EN-1-YL]-3-HYDROXY-5-PENTYLPHENOLATE” (Natural Extraction Systems, LLC, priority 2018, published 2022).

Tests used:
Assay type in all cases: physicochemical
[1] = pH stability of the phenolate in water (color change purple to yellow-brown)
Experimental: 1 gram of 1R,6R CBD was dissolved in 6.6 milliliters of 0.5 molar potassium hydroxide (0.5 M KOH) in ethanol to produce 2-[(1R,6R)-6-isopropenyl-3-methylcyclohex-2-en-1-yl]-3-hydroxy-5-pentylphenolate. The solution was then diluted with 100 millimolar sodium carbonate (100 mM Na2CO3) in water to a final volume of 50 milliliters and a 2-[(1R,6R)-6-isopropenyl-3-methylcyclohex-2-en-1-yl]-3-hydroxy-5- pentylphenolate concentration of approximately 20 grams per liter. 0.5 milliliters of the 2-[(1R,6R)-6-isopropenyl-3-methylcyclohex-2-en-1-yl]-3-hydroxy-5-pentylphenolate solution was added to each of 25 test tubes containing 9.5 milliliters of 0.1 molar carbonate/bicarbonate (CO3^2−/HCO3^−) buffer according to Table 1. Each test tube contained approximately 10 milligrams of 2-[(1R,6R)-6-isopropenyl-3-methylcyclohex-2-en-1-yl]-3-hydroxy-5-pentylphenolate at a concentration of approximately 1 gram per liter, approximately 0.66% ethanol by weight, trace potassium ion, and variable sodium ion, carbonate ion, and bicarbonate ion. pH's were confirmed by multiple different measurements. […]

[2] = Determining the approximate pKa of 1R,6R CBD by color at varying sodium bicarbonate concentration; settings: distilled water with sodium bicarbonate, under the test conditions, from color change
Experimental: Example 2. Determining the approximate pKa of IR, 6R CBD 0.5 milliliters of the 20 gram-per-liter solution of 2-[(1R,6R)-6-isopropenyl-3-methylcyclohex-2-en-1-yl]-3-hydroxy-5-pentylphenolate described in Example 1 was diluted with 9.5 milliliters of distilled water comprising varying concentrations of sodium bicarbonate, and color was monitored as shown in Table 2. pH's were confirmed by multiple different measurements.

[3] = Commercial viability of beverages comprising the phenolate (appearance in bottled water)
Experimental: 20 milliliters of water was removed from a 1 liter bottle of ESSENTIA® OVERACHIEVING H2O®. ESSENTIA® OVERACHIEVING H2O® contains purified water, sodium bicarbonate, dipotassium phosphate, magnesium sulfate, and calcium chloride, and its pH was determined to be about 9.5. The 20 milliliters of removed water was replaced with 20 milliliters of the 20 gram-per-liter solution of 2-[(1R,6R)-6-isopropenyl-3-methylcyclohex-2-en-1-yl]-3-hydroxy-5-pentylphenolate, which is described in Example 1, and the bottle was hermetically sealed using the screw cap top of the bottle to produce a hermetically-sealed container comprising approximately 400 milligrams of 2-[(1R,6R)-6-isopropenyl-3-methylcyclohex-2-en-1-yl]-3-hydroxy-5-pentylphenolate. The pH of the liquid was measured and determined to be about 10. […] 5 milliliters of water was removed from a 500 milliliter bottle of DASANI® purified water.
DANSANI® purified water contains purified water, magnesium sulfate, potassium chloride, and sodium chloride, and its pH was determined to be about 7.0. The 5 milliliters of removed water was replaced with 5 milliliters of the 20 gram-per-liter solution of 2-[(1R,6R)-6-isopropenyl-3-methylcyclohex-2-en-1-yl]-3-hydroxy-5-pentylphenolate, which is described in Example 1, and the bottle was hermetically sealed using the screw cap top of the bottle to produce a hermetically-sealed container comprising approximately 100 milligrams of 2-[(1R,6R)-6-isopropenyl-3-methylcyclohex-2-en-1-yl]-3-hydroxy-5-pentylphenolate. The pH of the liquid was measured and determined to be about 9.5.
0.5 milliliters of water was removed from a 500 milliliter bottle of DASANI® purified water. DANSANI® purified water contains purified water, magnesium sulfate, potassium chloride, and sodium chloride, and its pH was determined to be about 7.0. […] The pH of the liquid was measured and determined to be about 8.5.

Row | Compound | pKa ([1]; suggested from absence of color change, at least in dilute aqueous solutions (alternative: kinetic trapping)) | pKa [2] | color change from purple (phenolate) to yellow-brown (1R,6R CBD) ([1]; pH's of 9.1 and above, approximately 1 gram per liter in 0.1 molar carbonate/bicarbonate buffer, approximately 0.66% ethanol) | appearance of the liquid ([3]; approximately 10 milligrams in 500 milliliter bottle of DASANI purified water, pH about 8.5) | appearance of the liquid ([3]; approximately 100 milligrams in 500 milliliter bottle of DASANI purified water, pH about 9.5) | appearance of the liquid ([3]; approximately 400 milligrams in 1 liter bottle of ESSENTIA OVERACHIEVING H2O, pH about 10)
1 | C=C(C)[C@@H]1CCC(C)=C[C@H]1c1c(O)cc(CCCCC)cc1O [1R,6R CBD, 2-[(1R,6R)-6-isopropenyl-3-methylcyclohex-2-en-1-yl]-5-pentylbenzene-1,3-diol, reference compound] | < 9.1 | 8 to 8.5 |  |  |  | 
2 | C=C(C)[C@@H]1CCC(C)=C[C@H]1c1c(O)cc(CCCCC)cc1O [2-[(1R,6R)-6-isopropenyl-3-methylcyclohex-2-en-1-yl]-3-hydroxy-5-pentylphenolate] |  |  | No color change | transparent and lacked discernable color | transparent and purple | purple and transparent
